In PubChem BioAssay AID624112 (National Center for Advancing Translational Sciences (NCATS), 2012):

Tested on: Aqueous solubility in PBS, percent remaining
Assay: qHTS Assay for Inhibitors of Bacillus subtilis Sfp phosphopantetheinyl transferase (PPTase): Aqueous Solubility in PBS
Conditions: stronger effect = higher value
Description: The covalent attachment of a phosphopantetheinyl (4'-PP) arm to a variety of synthases and other proteins is a key posttranslational protein modification. The 4'-PP is installed on the proteins post-translationally from coenzyme A (CoA) on a conserved serine residue by action of phosphopantetheinyl transferase (PPTase) enzymes. Phosphopantetheinylation is essential for synthase activity, and removal of the PPTase gene precludes natural product synthesis in microorganisms, or in the case of fatty acid biosynthesis, renders the organism unviable. PPTase enzymes belong to a distinct structural superfamily. Within bacteria, these enzymes are grouped into two classes based upon primary structure, the AcpS-Type and Sfp-Type PPTases.
Sfp-type PPTases, corresponding to an activator of surfactin production in Bacillus subtilis, are responsible for modifying type I polyketide and nonribosomal peptide synthases of prokaryotes. Sfp-type PPTases are responsible for the activation of a variety of pathogen-associated virulence factors. […]
2microM of compound is incubated in PBS buffer at pH 7; the reference compound is procaine. Compounds are incubated at 37 deg C for the pre-determined time periods and the when aliquots are removed. Samples are analyzed with LC-MS/MS.

- solubility, percent remaining: 100%
Structure (SMILES): COc1ccnc(NC(=S)N2CCN(c3ncc(C(F)(F)F)cc3Cl)CC2)c1
